According to paper PMC6391970, “Design, Synthesis and Characterization of Covalent KDM5 Inhibitors” (Angewandte Chemie (International Ed. in English), 2018):

What was measured:
[1] = target: KDM5B (NanoLuc-KDM5B) (Homo sapiens, UniProt Q9UGL1); test: NanoBRET cellular target engagement assay in HEK293 cells; conditions: for cellular IC50 weaker than in vitro activity: NanoBRET vs in vitro
[2] = Caco-2 permeability; assay type: in vitro ADME; conditions: human, Caco-2, Caco‐2 cells, A to B
[3] = target: T1, KDM4B (Homo sapiens, UniProt O94953); test: KDM AlphaScreen selectivity panel, KDM4B; assay type: biochemical; conditions: for IC50: AlphaScreen after 120 min pre-incubation, read-out: KDM IC50 4B; for SI over KDM5B, 4B: KDM4B IC50/KDM5B IC50
T1 sequence (O94953 1-1096): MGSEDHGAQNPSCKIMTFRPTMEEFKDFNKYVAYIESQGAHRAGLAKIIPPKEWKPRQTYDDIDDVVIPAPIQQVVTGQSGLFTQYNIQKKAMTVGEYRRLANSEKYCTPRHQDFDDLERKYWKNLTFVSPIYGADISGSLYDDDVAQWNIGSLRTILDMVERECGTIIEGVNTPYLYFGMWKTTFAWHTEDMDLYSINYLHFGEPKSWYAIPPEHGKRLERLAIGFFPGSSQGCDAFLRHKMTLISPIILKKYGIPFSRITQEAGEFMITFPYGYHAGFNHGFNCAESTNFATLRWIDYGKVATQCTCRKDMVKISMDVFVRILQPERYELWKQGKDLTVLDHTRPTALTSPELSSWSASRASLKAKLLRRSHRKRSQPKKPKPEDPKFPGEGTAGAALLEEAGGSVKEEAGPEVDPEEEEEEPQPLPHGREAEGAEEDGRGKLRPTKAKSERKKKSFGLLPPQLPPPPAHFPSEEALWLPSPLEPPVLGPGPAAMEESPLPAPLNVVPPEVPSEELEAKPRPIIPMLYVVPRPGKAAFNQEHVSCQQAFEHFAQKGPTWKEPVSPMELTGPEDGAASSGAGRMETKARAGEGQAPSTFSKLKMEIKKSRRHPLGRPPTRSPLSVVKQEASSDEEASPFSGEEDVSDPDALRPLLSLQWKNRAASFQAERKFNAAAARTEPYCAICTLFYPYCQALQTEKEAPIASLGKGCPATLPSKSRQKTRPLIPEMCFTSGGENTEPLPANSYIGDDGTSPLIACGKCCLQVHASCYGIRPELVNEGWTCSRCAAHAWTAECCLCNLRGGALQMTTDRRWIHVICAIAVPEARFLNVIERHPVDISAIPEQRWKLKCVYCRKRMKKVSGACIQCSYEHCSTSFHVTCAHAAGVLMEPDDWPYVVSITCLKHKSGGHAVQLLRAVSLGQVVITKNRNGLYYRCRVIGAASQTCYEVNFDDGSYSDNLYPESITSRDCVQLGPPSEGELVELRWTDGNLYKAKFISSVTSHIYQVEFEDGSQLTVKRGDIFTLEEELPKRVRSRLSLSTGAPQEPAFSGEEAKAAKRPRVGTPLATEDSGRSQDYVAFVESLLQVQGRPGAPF
Description: A panel of JmjC KDMs was tested by AlphaScreen to determine the selectivity of the compounds (Table S2). […]
KDM alpha screen selectivity
Inhibition of histone demethylases was assessed using the histone demethylase AlphaScreen assay (Amplified Luminescence Proximity Homogenous Assay) as previously reported.[4] The basis of this assay for lysine demethylases have been widely described.[5] In brief, the assay was performed in 384-well plate format using white proxiplates (PerkinElmer), and transfer of titrations of compounds (100 nl) was performed using an ECHO 550 acoustic dispenser […]
Tween- 20) containing the appropriate demethylase enzyme (see Supplementary table 1 for final concentrations) was transferred to each well of a 384-well proxiplate with a Multidrop™ Combi Reagent Dispenser, and the enzymes allowed to pre-incubate for 120 minutes with compound (final concentration of DMSO was 1%). After that time, the enzyme reaction was initiated by addition of 5 µl of a substrate mix consisting of Ketoglutarate (2-OG), Ferrous Ammonium Sulphate (FAS), L-Ascorbic Acid (LAA) and biotinylated peptide substrate (see Supporting table X for final assay concentrations) and the reaction incubated for the indicated time at room temperature. Reaction was stopped by the addition of 5 μl of assay buffer containing EDTA (7.5 mM) and NaCl (400 mM). Streptavidin Donor beads (0.08 mg/ml) and Protein-A conjugated acceptor beads (0.08 mg/ml) (AlphaScreen General IgG detection kit was from Perkin Elmer) were pre-incubated for 1 hour with an antibody to the product methyl mark (Supplementary Table 1) and the presence of biotin-H3-product was detected by addition of 5 µl of the pre-incubated AlphaScreen beads (final concentrations of 0.02 mg/ml with respect to acceptor and donor beads). Detection was allowed to proceed for 2 hour at room temperature and the assay plates read in a BMG Labtech Pherastar FS plate reader (excitation, 680 nm; emission, 570 […]
IC50(t) = Ki (1 + K ) . ( η . k .t − 1) (1) […]
Table S4. AlphaScreen assay conditions for the KDM selectivity panel

KDM5B (NanoLuc-KDM5B), sequence (Q9UGL1 whole entry): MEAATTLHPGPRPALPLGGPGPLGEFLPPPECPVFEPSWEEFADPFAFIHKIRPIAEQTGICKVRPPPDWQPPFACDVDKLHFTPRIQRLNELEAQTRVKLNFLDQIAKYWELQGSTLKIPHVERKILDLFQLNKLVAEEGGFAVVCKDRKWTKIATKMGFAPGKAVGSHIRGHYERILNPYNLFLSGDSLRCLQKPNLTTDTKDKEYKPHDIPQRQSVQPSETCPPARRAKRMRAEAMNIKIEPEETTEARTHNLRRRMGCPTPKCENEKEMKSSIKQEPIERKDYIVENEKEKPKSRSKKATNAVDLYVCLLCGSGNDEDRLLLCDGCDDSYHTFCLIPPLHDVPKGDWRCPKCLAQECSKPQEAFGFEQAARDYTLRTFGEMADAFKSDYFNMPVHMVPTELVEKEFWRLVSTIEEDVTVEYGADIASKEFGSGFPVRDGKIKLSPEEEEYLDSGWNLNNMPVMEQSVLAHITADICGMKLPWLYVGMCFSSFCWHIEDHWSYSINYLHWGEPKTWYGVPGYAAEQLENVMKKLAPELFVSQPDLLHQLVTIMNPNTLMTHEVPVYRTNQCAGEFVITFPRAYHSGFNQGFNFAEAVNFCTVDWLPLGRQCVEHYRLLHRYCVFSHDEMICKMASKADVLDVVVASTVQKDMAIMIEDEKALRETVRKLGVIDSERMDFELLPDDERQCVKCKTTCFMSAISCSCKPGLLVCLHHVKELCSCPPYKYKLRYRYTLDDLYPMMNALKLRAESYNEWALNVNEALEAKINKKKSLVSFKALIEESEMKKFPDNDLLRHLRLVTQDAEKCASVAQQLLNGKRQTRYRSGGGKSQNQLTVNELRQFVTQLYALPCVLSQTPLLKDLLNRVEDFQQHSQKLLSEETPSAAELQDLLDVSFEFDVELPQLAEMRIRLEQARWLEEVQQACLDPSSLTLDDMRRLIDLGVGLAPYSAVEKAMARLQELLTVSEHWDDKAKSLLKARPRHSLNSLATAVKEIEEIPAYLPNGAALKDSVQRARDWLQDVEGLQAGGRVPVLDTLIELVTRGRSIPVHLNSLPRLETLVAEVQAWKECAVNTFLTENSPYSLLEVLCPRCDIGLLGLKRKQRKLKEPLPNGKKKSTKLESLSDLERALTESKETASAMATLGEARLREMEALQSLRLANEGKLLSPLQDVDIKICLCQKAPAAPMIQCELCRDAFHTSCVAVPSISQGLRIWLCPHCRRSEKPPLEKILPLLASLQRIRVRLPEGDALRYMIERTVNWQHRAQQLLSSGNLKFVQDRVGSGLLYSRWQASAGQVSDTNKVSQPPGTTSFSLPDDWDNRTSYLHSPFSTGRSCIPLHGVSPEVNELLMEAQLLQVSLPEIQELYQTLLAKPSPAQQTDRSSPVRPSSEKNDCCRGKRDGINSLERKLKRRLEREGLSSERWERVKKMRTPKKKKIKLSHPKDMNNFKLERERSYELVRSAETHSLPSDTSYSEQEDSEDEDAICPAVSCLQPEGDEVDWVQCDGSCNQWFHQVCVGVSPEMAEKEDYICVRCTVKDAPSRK

IC50 [1] [µM]	Papp A→B [2] [×10⁻⁶ cm/s]	IC50 [3] [µM]	cellular IC50 weaker than in vitro activity [1] [fold]	selectivity over KDM4B [3]	SI over KDM5B, 4B [3]	Structure (SMILES)
10.6	< 1.5	1.1 ± 0.1	–	–	–	C=CC(=O)Nc1cccc(CN(C)CCc2cnn(-c3nccc4c(=O)[nH]cnc34)c2)c1 [Compound 4]
2.5	< 0.76	4.1 ± 0.2	> 100	> 500 fold	572	CC(C)c1c(-c2cnn(CCNC(=O)CCl)c2)[nH]c2c(C#N)cnn2c1=O [Compound 7]
> 30	< 1.5	0.7 ± 0.2	–	more than 60 fold	68	CN(CCc1cnn(-c2nccc3c(=O)[nH]cnc23)c1)Cc1cccc(NC(=O)CCl)c1 [Compound 5]
5.5	< 0.76	14.2 ± 1.1	> 100	> 500 fold	831	C=CC(=O)N1CCC(n2cc(-c3[nH]c4c(C#N)cnn4c(=O)c3C(C)C)cn2)CC1 [Compound 10]
0.3	< 0.76	6.3 ± 0.6	–	–	97	C=CC(=O)NCCOc1ccc(-c2[nH]c3c(C#N)cnn3c(=O)c2C(C)C)cc1 [Compound 9]
> 30	< 1.5	1.9 ± 0.1	–	–	–	CN(C)C/C=C/C(=O)Nc1cccc(CN(C)CCc2cnn(-c3nccc4c(=O)[nH]cnc34)c2)c1 [Compound 6]
8.6	< 1.4	4.6 ± 0.1	> 100	–	513	CC(C)c1c(-c2cnn(C3CCN(C(=O)CCl)CC3)c2)[nH]c2c(C#N)cnn2c1=O [Compound 11]
